Measured values: patent publication US10881110B2, “Herbicidal compositions comprising isoxazolo[5,4-b]pyridines” (BASF SE, priority 2014, dated 2021)
Like-named read-outs stand apart in the source and are kept apart here.

Assays:
Test in all cases: greenhouse post-emergence herbicidal test
[1] = tested on: KCHSC; type: in vivo, Kochia scoparia; parameters: key to herbicidal activity against KCHSC found: rating on a scale from 0 to 100; conditions: post emergence; for pest or weed control at 31.25 g/ha: 31.25 g/ha a.i.
How it was run: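 Herbicidal activity scored on a 0 (no damage) to 100 (plants destroyed) scale, usually 20 days after water-based spraying of 1–15 cm plants grown in loamy sand at 10-25 °C or 20-35 °C depending on species. Components were applied from 10% emulsion concentrates; Colby's E=X+Y−(X·Y/100) gives the additive expectation.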

[2] = tested on: AMARE; type: in vivo, Amaranthus retroflexus
Method: (§1) The culture containers used were plastic pots containing medium loamy sand with approximately 4.6% of humus and 69.9% sand as substrate. The seeds of the test plants were sown separately for each species.
(§2) For the post-emergence treatment, the test plants were grown to a plant height of from 1 to 15 cm, depending on the plant habit, and only then treated with the active compounds which had been suspended or emulsified in water. To this end, the test plants were either sown directly, and grown in the same containers, or they were first grown separately as seedlings and transplanted into the test containers a few days prior to treatment.
(§3) Depending on the species, the plants were kept at 10-25° C. and 20-35° C., respectively.
(§4) The test period extended over 1 to 3 weeks. During this time, the plants were tended and their response to the individual treatments was evaluated 20 days after treatment except mentioned otherwise.
(§5) Evaluation was carried out using a scale from 0 to 100. 100 means no emergence of the plants, or complete destruction of at least the above-ground parts, and 0 means no damage or normal course of growth.
(§6) The respective stated components A and B, and, if appropriate, C, were formulated as a 10% by weight strength emulsion concentrate and, with addition of the amount of solvent system, introduced into the spray liquor used for applying the active compound. In the examples, the solvent used was water.
(§7) In the examples below, using the method of S. R. Colby (1967) “Calculating synergistic and antagonistic responses of herbicide combinations”, Weeds 15, p. 22 ff., the value E, which is expected if the activity of the individual active compounds is only additive, was calculated. E=X+Y−(X·Y/100)

[3] = tested on: DIGSA; type: in vivo, Digitaria sanguinalis
Method: as §1, §2, §3, §4, §5, §6, §7

[4] = tested on: ECHCG; type: in vivo, Echinochloa crus-galli; parameters: key to herbicidal activity against ECHCG found / herbicidal activity against ECHCH found: scale 0 to 100; conditions: post emergence
How it was run: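 A 0 to 100 injury score, read 20 days after post-emergence application, reflects above-ground destruction or absent emergence at 100. Actives, formulated as a 10% by weight emulsion concentrate, were applied in water to plants 1–15 cm tall held at 10-25° C or 20-35° C.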

[5] = tested on: SEBEX; type: in vivo, Sesbania exaltata; conditions: application rate a.i.: I.1 31.25 g/ha
Method: as §1, §2, §3, §4, §5, §6, §7

[6] = I.1 31.25 g/ha, B.103 7.5 g/ha a.i.
[7] = a.i. g/ha: I.1 31.25, B.76 225, 20 days after treatment
[8] = application rate a.i.: I.1 250 g/ha, B.193 15 g/ha, alone or as mixture (composition 1.193)

## O=C(O)c1cc(C2CC2)nc2onc(C3CC3)c12 [I.1]
[1]; Bassia scoparia, post-emergence, 480 h, read-out: herbicidal activity against KCHSC found
  pest or weed control at 31.25 g/ha: 75%
[1]; Bassia scoparia, post-emergence, 480 h, I.1 125 g/ha a.i., read-out: herbicidal activity against KCHSC found
  pest or weed control at 125 g/ha: 95%
[1]; Bassia scoparia, post-emergence, 480 h, single active, 15.625 g/ha a.i., read-out: herbicidal activity against KCHSC found
  pest or weed control at 15.625 g/ha: 0%
[1]; Bassia scoparia, post-emergence, 480 h, single active, read-out: herbicidal activity against KCHSC found
  pest or weed control at 31.25 g/ha: 30%
[1]; Bassia scoparia, post-emergence, 480 h, single active, 62.5 g/ha a.i., read-out: herbicidal activity against KCHSC found
  pest or weed control at 62.5 g/ha: 70%
[1]; 6 days after treatment, g/ha a.i.: I.1 31.25, B.96 35, mixture 31.25+35
  herbicidal activity against KCHSC found: 10
[1]; 6 days after treatment, g/ha a.i.: I.1 31.25, B.96 70, mixture 31.25+70
  herbicidal activity against KCHSC found: 10
[1]; 6 days after treatment, g/ha a.i.: I.1 31.25, B.96 140, mixture 31.25+140
  herbicidal activity against KCHSC found: 10
[1]; 6 days after treatment, g/ha a.i.: I.1 31.25, naptalam 100, mixture 31.25+100
  herbicidal activity against KCHSC found: 10
[1]; 6 days after treatment, g/ha a.i.: I.1 31.25, naptalam 200, mixture 31.25+200
  herbicidal activity against KCHSC found: 10
[1]; 6 days after treatment, g/ha a.i.: I.1 62.5, B.96 35, mixture 62.5+35
  herbicidal activity against KCHSC found: 90
[1]; 6 days after treatment, g/ha a.i.: I.1 62.5, B.96 70, mixture 62.5+70
  herbicidal activity against KCHSC found: 90
[1]; I.1 15.62 g/ha, B.88 1 g/ha a.i.
  herbicidal activity against KCHSC found: 45
[1]; [6]
  herbicidal activity against KCHSC found: 30
[1]; I.1 31.25 g/ha, B.103 15 g/ha a.i.
  herbicidal activity against KCHSC found: 30
[1]; I.1 31.25 g/ha, B.167 62.5 g/ha a.i.
  herbicidal activity against KCHSC found: 30
[1]; I.1 31.25 g/ha, B.88 1 g/ha a.i.
  herbicidal activity against KCHSC found: 55
[1]; I.1 62.5 g/ha, B.103 7.5 g/ha a.i.
  herbicidal activity against KCHSC found: 70
[1]; I.1 62.5 g/ha, B.103 15 g/ha a.i.
  herbicidal activity against KCHSC found: 70
[1]; I.1 62.5 g/ha, B.167 62.5 g/ha a.i.
  herbicidal activity against KCHSC found: 70
[1]; I.1 62.5 g/ha, B.88 1 g/ha a.i.
  herbicidal activity against KCHSC found: 80
[1]; applied alone at 31.25 g/ha a.i.
  herbicidal activity against KCHSC found: 80
[1]; applied alone at 125 g/ha a.i.
  herbicidal activity against KCHSC found: 95
[1]; g/ha a.i.: I.1 31.25, B.24 1, mixture 31.25+1
  herbicidal activity against KCHSC found: 40
[1]; g/ha a.i.: I.1 31.25, B.24 2, mixture 31.25+2
  herbicidal activity against KCHSC found: 40
[2]; a.i. g/ha: I.1 15.6, B.190 62.5, 20 days after treatment
  herbicidal activity against AMARE found: 30%
[2]; a.i. g/ha: I.1 20.8, B.192 62.5, 20 days after treatment
  herbicidal activity against AMARE found: 70%
[2]; a.i. g/ha: I.1 31.25, B.190 62.5, 20 days after treatment
  herbicidal activity against AMARE found: 35%
[2]; [7]
  herbicidal activity against AMARE found: 90%
[2]; a.i. g/ha: I.1 31.25, bentazon Na 125, 20 days after treatment
  herbicidal activity against AMARE found: 35%
[3]; [7]
  herbicidal activity against DIGSA found: 35%
[3]; a.i. g/ha: I.1 62.5, B.76 225, 20 days after treatment
  herbicidal activity against DIGSA found: 40%
[3]; a.i. g/ha: I.1 62.5, B.80 250, 20 days after treatment
  herbicidal activity against DIGSA found: 40%
[3]; [8]
  herbicidal activity against DIGSA found: 35
[4]; Echinochloa crus-galli, post-emergence, 480 h, I.1 alone 31.25 g/ha a.i., read-out: herbicidal activity against ECHCG found
  pest or weed control at 31.25 g/ha: 0%
[4]; Echinochloa crus-galli, post-emergence, 480 h, I.1 alone 62.5 g/ha a.i., read-out: herbicidal activity against ECHCG found
  pest or weed control at 62.5 g/ha: 45%
[4]; Echinochloa crus-galli, post-emergence, 480 h, 31.25 g/ha a.i., read-out: herbicidal activity against ECHCG found
  pest or weed control at 31.25 g/ha: 0%
[4]; Echinochloa crus-galli, post-emergence, 480 h, I.1 31.25 g/ha a.i., read-out: herbicidal activity against ECHCG found
  pest or weed control at 31.25 g/ha: 70%
[4]; Echinochloa crus-galli, post-emergence, 480 h, single active, 15.62 g/ha a.i., read-out: herbicidal activity against ECHCG found
  pest or weed control at 15.62 g/ha: 0%
[4]; Echinochloa crus-galli, post-emergence, 480 h, single active, 31.25 g/ha a.i., read-out: herbicidal activity against ECHCG found
  pest or weed control at 31.25 g/ha: 10%
[4]; I.1 15.62 g/ha, B.167 125 g/ha a.i.
  herbicidal activity against ECHCG found: 0
[4]; I.1 15.62 g/ha, B.95 1 g/ha a.i.
  herbicidal activity against ECHCG found: 10
[4]; [6]
  herbicidal activity against ECHCG found: 10
[4]; I.1 31.25 g/ha, B.167 125 g/ha a.i.
  herbicidal activity against ECHCG found: 10
[4]; I.1 62.5 g/ha, B.95 2 g/ha a.i.
  herbicidal activity against ECHCG found: 55
[4]; I.1 125 g/ha a.i.
  herbicidal activity against ECHCH found: 85
[4]; a.i. g/ha: I.1 20.8, B.67 62.5, 20 days after treatment
  herbicidal activity against ECHCG found: 30%
[4]; a.i. g/ha: I.1 62.5, B.67 62.5, 20 days after treatment
  herbicidal activity against ECHCG found: 65%
[4]; a.i. g/ha: I.1 62.5, B.79 25, 20 days after treatment
  herbicidal activity against ECHCG found: 65%
[4]; application rate a.i.: I.1 31.25 g/ha, B.40 (imazethapyr) 7.5 g/ha, alone or as mixture (composition 1.40)
  herbicidal activity against ECHCG found: 0
[4]; [8]
  herbicidal activity against ECHCG found: 95
[5]; B.139 (pyroxasulfone) 25 g/ha, alone or as mixture (composition 1.139)
  herbicidal activity against SEBEX, found: 80
[5]; B.87 (carfentrazone-ethyl) 1.75 g/ha, alone or as mixture (composition 1.87)
  herbicidal activity against SEBEX, found: 75
